From EP4603105A1, “PHARMACEUTICAL COMPOSITION CONTAINING CYCLIC COMPOUND HAVING SELECTIVE KRAS INHIBITORY EFFECT AGAINST HRAS AND NRAS” (CHUGAI SEIYAKU KABUSHIKI KAISHA, priority 2022, dated 2024)

Experiments:
[1] = tested on: human pancreatic cancer strain KP4; format: cell-based
Protocol: (§1) A test compound was dispensed into a U-bottom 384-well plate as 40 nL serially diluted dimethyl sulfoxide solutions using a liquid handler Echo (LABCYTE). As for human pancreatic cancer strain KP4 (Institute of Physical and Chemical Research), a cell suspension was prepared so as to have 500 cells/40 µL in a DMEM/Ham's F-12 medium (Nacalai Tesque) supplemented with 10% fetal bovine serum (Sigma). This cell suspension was dispensed in an amount of 40 µL per well into a plate containing the test compound, and cultured at 37°C in a 5% carbon dioxide gas incubator. Seven days later, 20 µL of CellTiter-Glo (registered trademark) (Promega) was added to each well and luminescence was measured.

[2] = tested on: human gastric cancer strain GSU; format: cell-based
Protocol: as §1, with “gastric” for “pancreatic”, “GSU” for “KP4”, “200” for “500”, “an RPMI-1640” for “a DMEM/Ham's F-12”, “(Sigma)” for “(Nacalai Tesque)”

[3] = biological target: GDP-bound NRAS wild-type protein (Homo sapiens, UniProt P01111); test: Binding to NRAS by surface plasmon resonance (SPR), KD and KD ratio to KRAS; details: ratio of KD for GDP-bound NRAS wild-type protein to KD for KRAS
Method in brief: (§2)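 Running buffer contained 10 µM GDP and 10 mM MgCl2 to keep RAS in the GDP state, with 4% DMSO at pH 7.4. Compounds were flowed at 100 µL/min in 75 s steps of rising concentration over captured biotin-Avi RAS at 30°C. Sensorgrams were fitted 1:1 for KD.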

[4] = tested on: human lung cancer strain NCI-H441; format: cell-based
Method in brief: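 Step one: dispense the test compound in serial DMSO dilutions. Step three: add the reagent and measure […].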

[5] = tested on: human colorectal cancer strain GP2d; format: cell-based
Protocol: as §1, with “colorectal” for “pancreatic”, “GP2d (ECACC),” for “KP4 (Institute of Physical and Chemical Research),”, “Dulbecco's modified Eagle” for “DMEM/Ham's F-12”, “medium” for “medium (Nacalai Tesque)”

[6] = tested on: human gastric cancer strain SNU-1; format: cell-based
Protocol: as §1, with “gastric” for “pancreatic”, “SNU-1 (ATCC),” for “KP4 (Institute of Physical and Chemical Research),”, “250” for “500”, “an RPMI-1640” for “a DMEM/Ham's F-12”, “(Sigma)” for “(Nacalai Tesque)”, “(Sigma), a 2.5 g/L D-(+)-glucose solution, 10 mmol/L HEPES, and 1 mmol/L sodium pyruvate.” for “(Sigma).”

HRAS wild-type protein = HRAS wild-type protein (Homo sapiens, UniProt P01112); test: Binding to HRAS by surface plasmon resonance (SPR), KD and KD ratio to KRAS; details: ratio of KD for HRAS wild-type protein to KD for KRAS
Method in brief: as §2

[7] = tested on: human bladder cancer strain UM-UC-3; format: cell-based
Protocol: as §1, with “bladder” for “pancreatic”, “UM-UC-3 (ATCC),” for “KP4 (Institute of Physical and Chemical Research),”, “250” for “500”, “an MEM” for “a DMEM/Ham's F-12”, “(Sigma), an MEM non-essential amino acids solution (100X), and 1 mmol/L sodium pyruvate.” for “(Sigma).”, “measured. […]” for “measured.”

[8] = tested on: human ovarian cancer strain OV7; format: cell-based
Protocol: as §1, with “ovarian” for “pancreatic”, “OV7 (ECACC),” for “KP4 (Institute of Physical and Chemical Research),”, “250” for “500”, “5%” for “10%”, “(Sigma), 0.5 µg/mL hydrocortisone, and 10 µg/mL insulin.” for “(Sigma).”

[9] = biological target: GDP-bound KRAS wild-type protein (Homo sapiens, UniProt P01116); test: Binding to KRAS by surface plasmon resonance (SPR), dissociation constant KD
Method in brief: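 GDP-loaded biotinylated Avi-tag RAS proteins (E. coli-expressed) captured on a Biotin CAPture chip at ~100–300 RU; single-cycle kinetics at 30°C, 100 µL/min, 75 s injections of rising compound concentrations. HBS pH 7.4 running buffer with 1 mM DTT, 10 mM MgCl2, 10 µM GDP, 4% DMSO. KD from 1:1 binding fit.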

GDP-bound KRAS wild-type protein, sequence (P01116 1-188 isoform P01116-2): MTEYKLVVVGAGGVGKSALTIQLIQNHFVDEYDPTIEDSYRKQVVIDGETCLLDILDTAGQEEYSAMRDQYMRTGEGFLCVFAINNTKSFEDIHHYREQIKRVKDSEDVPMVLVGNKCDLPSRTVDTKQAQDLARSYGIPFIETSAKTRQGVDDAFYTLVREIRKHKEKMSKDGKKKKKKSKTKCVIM
HRAS wild-type protein, sequence (P01112 whole entry): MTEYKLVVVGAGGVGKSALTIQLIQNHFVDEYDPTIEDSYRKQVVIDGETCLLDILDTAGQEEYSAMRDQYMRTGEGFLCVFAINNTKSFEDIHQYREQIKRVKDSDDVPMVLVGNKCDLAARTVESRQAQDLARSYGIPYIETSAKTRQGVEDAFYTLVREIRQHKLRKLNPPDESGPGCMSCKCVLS
GDP-bound NRAS wild-type protein, sequence (P01111 whole entry): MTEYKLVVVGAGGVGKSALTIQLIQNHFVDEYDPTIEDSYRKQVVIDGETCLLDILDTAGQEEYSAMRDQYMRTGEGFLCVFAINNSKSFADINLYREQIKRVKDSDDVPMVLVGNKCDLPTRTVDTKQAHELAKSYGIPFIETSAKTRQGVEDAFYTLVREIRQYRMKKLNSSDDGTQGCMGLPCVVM

IC50 [1]	IC50 [2]	IC50 [4]	IC50 [5]	IC50 [6]	IC50 [7]	IC50 [8]	Kd ([9]; Single Cycle Kinetics)	Kd ([9]; 1:1 binding model)	Structure (SMILES)	NRAS /KRAS [3]	HRAS /KRAS (HRAS wild-type protein)
25.5 nM	2.1 nM	13.6 nM	9.1 nM	8.2 nM	8.7 nM	24.8 nM	0.12 nM		CCO[C@@H]1C[C@H]2C(=O)NC3(CCCC3)C(=O)N(C)[C@@H](C3CCCC3)C(=O)N(C)[C@H](C(=O)N(C)C)CC(=O)N(C)[C@@H]([C@@H](C)OC)C(=O)N[C@@H]([C@@H](C)CC)C(=O)N(C)CC(=O)N(C)[C@H]3C/C=C\CCN(C3=O)[C@@H](Cc3ccc(C)cc3)C(=O)N(C)CC(=O)N[C@@H](CCc3cc(F)c(C(F)(F)F)c(F)c3)C(=O)N2C1 [PP3481, (2S,8S,12R,14S,20S,23S,27S,30S,36S,38Z)-20-cyclopentyl-8-[2-[3,5-difluoro-4-(trifluoromethyl)phenyl]ethyl]-12-ethoxy-27-[(1R)-1-methoxyethyl]-N,N,4,19,22,26,32,35-octamethyl-30-[(1S)-1-methylpropyl]-3,6,9,15,18,21,25,28,31,34,42-undecaoxo-2-(p-tolylmethyl)spiro[1,4,7,10,16,19,22,26,29,32,35-undecazatricyclo[34.5.1.0^10,14]dotetracont-38-ene-17,1'-cyclopentane]-23-carboxamide]	A (a compound having 10 or more and less than 20 is denoted as A)	A (a compound having 10 or more and less than 20 is denoted as A)
13.1 nM	0.8 nM	7.2 nM	3.5 nM	2.5 nM	3.9 nM	13.2 nM	0.076 nM		CCO[C@@H]1C[C@H]2C(=O)NC3(CCCC3)C(=O)N(C)[C@@H](C3CCCC3)C(=O)N(C)[C@H](C(=O)N(C)C)CC(=O)N(C)[C@@H]([C@@H](C)OC)C(=O)N[C@@H]([C@@H](C)CC)C(=O)N(C)CC(=O)N(C)[C@H]3C/C=C\CCN(C3=O)[C@@H](Cc3ccc(C(F)(F)F)cc3)C(=O)N(C)CC(=O)N[C@@H](CCc3cc(F)c(C(F)(F)F)c(F)c3)C(=O)N2C1 [PP3475, (2S,8S,12R,14S,20S,23S,27S,30S,36S,38Z)-20-cyclopentyl-8-[2-[3,5-difluoro-4-(trifluoromethyl)phenyl]ethyl]-12-ethoxy-27-[(1R)-1-methoxyethyl]-N,N,4,19,22,26,32,35-octamethyl-30-[(1S)-1-methylpropyl]-3,6,9,15,18,21,25,28,31,34,42-undecaoxo-2-[[4-(trifluoromethyl)phenyl]methyl]spiro[1,4,7,10,16,19,22,26,29,32,35-undecazatricyclo[34.5.1.0^10,14]dotetracont-38-ene-17,1'-cyclopentane]-23-carboxamide]	A (a compound having 10 or more and less than 20 is denoted as A)	A (a compound having 10 or more and less than 20 is denoted as A)
61.3 nM	5.2 nM	17 nM	27.2 nM	35.6 nM	21.5 nM	57.1 nM		0.41 nM	CCC(CC)[C@H]1C(=O)N(C)[C@H](C(=O)N(C)C)CC(=O)N(C)[C@@H](COC)C(=O)N[C@@H]([C@@H](C)CC)C(=O)N(C)CC(=O)N(C)[C@H]2C/C=C\CCN(C2=O)[C@@H](Cc2ccc(C)cc2)C(=O)N(C)CC(=O)N[C@@H](CCc2ccc(C(F)(F)F)c(Cl)c2)C(=O)N2CC3(CC3)C[C@H]2C(=O)NC2(CC(C)(C)C2)C(=O)N1C [PP2967]	AA (a compound having 20 or more is denoted as AA)	A (a compound having 10 or more and less than 20 is denoted as A)
10.5 nM	1.2 nM	1.2 nM	4.6 nM	7.4 nM	4.9 nM	6.7 nM	0.16 nM		CCC[C@H]1C(=O)N[C@@H]([C@@H](C)CC)C(=O)N(C)CC(=O)N(C)[C@H]2C/C=C\CCN(C2=O)[C@@H](Cc2ccc(C)cc2)C(=O)N(C)CC(=O)N[C@@H](CCc2ccc(C(F)(F)F)c(OC)c2)C(=O)N2C[C@H](OCC)C[C@H]2C(=O)OC2(CCC2)C(=O)N(C)[C@@H](C2CCCC2)C(=O)N(C)[C@H](C(=O)N(C)C)CC(=O)N1C [PP3388, (2S,8S,12R,14S,20S,23S,27S,30S,36S,38Z)-20-cyclopentyl-12-ethoxy-8-[2-[3-methoxy-4-(trifluoromethyl)phenyl]ethyl]-N,N,4,19,22,26,32,35-octamethyl-30-[(1S)-1-methylpropyl]-3,6,9,15,18,21,25,28,31,34,42-undecaoxo-27-propyl-2-(p-tolylmethyl)spiro[16-oxa-1,4,7,10,19,22,26,29,32,35-decazatricyclo[34.5.1.0^10,14]dotetracont-38-ene-17,1'-cyclobutane]-23-carboxamide]	A (a compound having 10 or more and less than 20 is denoted as A)	B (a compound having 3 or more and less than 10 is denoted as B)
4 nM	0.5 nM	4.4 nM	0.7 nM	2.4 nM	0.6 nM	1.6 nM	0.019 nM		CCC[C@H]1C(=O)N[C@@H]([C@@H](C)CC)C(=O)N(C)CC(=O)N(C)[C@H]2C/C=C\CCN(C2=O)[C@@H](Cc2ccc(C)cc2)C(=O)N(C)CC(=O)N[C@@H](CCc2cc(F)c(C(F)(F)F)c(F)c2)C(=O)N2CC3(CC3)C[C@H]2C(=O)N(C)C2(CCC2)C(=O)N(C)[C@@H](C2CCCC2)C(=O)N(C)[C@H](C(=O)N(C)C)CC(=O)N1C [PP3327]	A (a compound having 10 or more and less than 20 is denoted as A)	A (a compound having 10 or more and less than 20 is denoted as A)
29.3 nM	4.3 nM	11.9 nM	13 nM	19.7 nM	29 nM	50.9 nM	0.37 nM		CCC[C@H]1C(=O)N[C@@H]([C@@H](C)CC)C(=O)N(C)CC(=O)N(C)[C@H]2C/C=C\CCN(C2=O)[C@@H](Cc2ccc(C(F)(F)F)cc2)C(=O)N(C)CC(=O)N[C@@H](CCc2ccc(C(F)(F)F)c(Cl)c2)C(=O)N2CC3(CC3)C[C@H]2C(=O)NC2(CCC2)C(=O)N(C)[C@@H](C(CC)CC)C(=O)N(C)[C@H](C(=O)N(C)C)CC(=O)N1C [PP3414]	AA (a compound having 20 or more is denoted as AA)	A (a compound having 10 or more and less than 20 is denoted as A)
